According to patent US8734788B2, “Composition and method for treatment of reperfusion injury and tissue damage” (OPSONA Therapeutics Ltd, priority 2007, dated 2014):
pIC50: −log10 of the molar value. Entries after “also recorded” stand apart in the source; their conditions may differ.

Columns and labels:
[1] = test system: IL-1 production in LPS-stimulated human peripheral blood monocytes; conditions: cited from earlier work
[2] = test system: myocardial ischemia/reperfusion (I/R) injury in C57BL6 mice; test: Infarct size after myocardial ischemia/reperfusion in mice (Evans blue/TTC staining); assay type: in vivo; conditions: for effect on infarct size (in words): administered 5 minutes prior to reperfusion, versus saline/PBS
Protocol: Male C57BL6 mice (8-12 weeks old, 25-30 grams of weight) underwent 30 minutes of ischemia followed by 24 hours of reperfusion.
Experimental compounds were administered 5 minutes prior to reperfusion via the tail vein. […] OPN-301 (OPN301) is a murine IgG1 anti-TLR2 antibody (mouse Toll-like Receptor 2 (TLR2) antibody, clone T2.5, HyCult Biotechnology b.v., Cell Sciences, Canton, USA: catalogue number 1054).
Mice were anesthetized with a mixture of […]™ (N-(1-phenethyl-4-piperidyl)-N-phenyl-propanamide) 0.05 mg/kg, DORMICUM™ (Midazolum, 8-chloro-6-(2-fluorophenyl)-1-methyl-4H-imidazo[1,5-a][1,4]benzodiazepine) 5 mg/kg and DOMITOR™ (medetomidine hydrochlorine) 0.5 mg/kg (intraperitoneal injection). Atropine ((8-methyl-8-azabicyclo[3.2.1]oct-3-yl) 3-hydroxy-2-phenylpropanoate) 0.05 mg/kg was subcutaneously administered before coronary ligation. Core body temperature was maintained between 36° C. and 37.5° C. during surgery by continuous monitoring with a rectal thermometer and automatic heating blanket. Mice were […] and ventilated (Harvard Apparatus Inc.) with 100% oxygen. The left anterior descending (LAD) coronary artery was ligated using an 8-0 vicryl suture with a section of polyethylene-10 tubing placed over the LAD.
Ischemia was confirmed by bleaching of the myocardium. Reperfusion was initiated by releasing the ligature and removing the polyethylene-10 tubing. Reperfusion of the endangered myocardium is characterized by typical hyperaemia in the first few minutes. A piece of the loosened suture was left in place in order to determine ischemic area. The chest wall was closed and the animals received subcutaneously […]™ (atipamezole hydrochloride, a sedation reversal agent for DOMITOR™ (medetomidine hydrochlorine)) 2.5 mg/kg, ANEXATE™ (Flumazenil (also known as flumazepil)) 0.5 mg/kg and […]™ (buprenorphine) 0.1 mg/kg.
Infarct Size (IS) is expressed as a percentage of the Area-At-Risk (AAR) and total Left Ventricle (LV). The ratio of AAR/LV is a measure for the extent of myocardial tissue that underwent ischemia and reperfusion (i.e. endangered area). The ratio IS/AAR is an accurate measurement to determine infarct size within endangered myocardium and is the primary endpoint from which the efficacy of treatment is addressed. The secondary endpoint IS/LV ratio is the percentage infarcted area within the total left ventricular wall.
To determine the AAR, the LAD was ligated once again (at the level marked by the suture left in place) and 4% Evans blue dye was injected via the thoracic aorta in a retrograde fashion. Hearts were rapidly explanted, rinsed in 0.9% saline and wrapped in a clear food wrap and frozen at −20° C. for 1 hour. Hearts were then mechanically sliced into five 1 mm cross sections. Heart sections were incubated in 1% triphenyltetrazolium chloride (Sigma-Aldrich) at 37° C. for 15 minutes before placing them in formaldehyde for another 15 minutes. Viable tissue stained red and infarcted tissue appeared white. Heart sections were digitally photographed (CANON EOS 400D) under a microscope (CARL ZEISS™). IS, MR and total LV area were measured using ImageJ software (version 1.34).
All data are expressed as Mean±SD. After skewness±SD and kurtosis±SD confirmed normality, a one-way ANOVA with Bonferroni adjustment (Table 2) and a Dunnett's T test (2 sided) (Table 4). was used to test differences between groups. Kolmogorov-Smirnov test performed if abnormal distribution was suspected (i.e. when kurtosis and skewness values are twice their standard deviations). All statistical analyses were performed using SPSS version 13.0 for Windows (SPSS, Chicago, USA) and p<0.05 was considered significant.

[3] = Table 1, 30 min ischemia/24 h reperfusion, i.v. 5 min prior to reperfusion, mAb and IgG 10 mg/kg, SB239063 0.5 mg/kg, n=10
[4] = Table 2, Bonferroni, (J) group IgG isotype
[5] = Table 2, Bonferroni, (J) group PBS
[6] = Table 2, Bonferroni, (J) group exp. mAB
[7] = Table 3 (amended, saline control set), 30 min ischemia/24 h reperfusion, n=10
[8] = Table 5, Dunnett, (J) group Saline

trans-1-(4-Hydroxycyclohexyl)-4-(fluorophenyl)-5-(2-methoxypyrimidin-4-yl) imidazole [SB239063]
pIC50 [1]: 6.92
IS_AAR (infarct size as percentage of Area At Risk), Mean [2, 3]: 31.4000%
IS_LV (infarct size as percentage of total Left Ventricle), Mean [2, 3]: 12.0100%
IS_AAR Mean Difference (I-J) [2, 4]: .25400
IS_LV Mean Difference (I-J) [2, 4]: −.85200
IS_AAR Mean Difference (I-J) [2, 5]: −4.185
IS_LV Mean Difference (I-J) [2, 5]: −5.3
IS_AAR Mean Difference (I-J) [2, 6]: 13.51(*)
IS_LV Mean Difference (I-J) [2, 6]: 5.908(*)
IS/AAR Mean [2, 7]: 31.7250%
IS/LV Mean [2, 7]: 12.3220%
IS_AAR Mean Difference (I-J) ([2]; Table 4, Dunnett, (J) group Saline, n=10 groups): −2.776
IS_AAR Mean Difference (I-J) [2, 8]: −2.776
IS_LV Mean Difference (I-J) [2, 8]: −1.74
effect on infarct size (in words) [2]: did not reduce infarct size
effect on infarct size (in words) ([2]; listed as p38 inhibitor): no reduction of infarct size; also recorded: no difference in infarct size
difference in mean IS/LV ([2]; versus PBS treated mice, not statistically significant (FIG. 7)): −26%
